Assay [1] concerns optic nerve (retinal ganglion cell axons). Briefly: optic nerve transection after intravitreal injection, neurofilament Western blot. Format: in vivo, rat. The conditions noted are these: 5 μl of 100 mM intravitreal, 24 hours before transection; 4 days after transection. The protocol:
FIG. 9 illustrates optic nerve transection after intravitreal injection of NAD biosynthetic substrates NAD, NMN, NmR, or Nam was injected into intravitreal compartment of left rat eye and allowed to incorporate retinal ganglion cells for 24 hours after which, left optic nerve was transected by eye enucleation and right and left optic nerves were collected at 4 days after transection and analyzed by Western blotting in which optic nerves transected from […] without any treatment prior to axotomy were used for negative control; showing in the figure, the quantitative analysis data of percentage of remaining neurofilament immunoreactivity from transected optic nerve relative to non-transected±S.D.
Administration of NAD biosynthetic substrates and optic Nerve transection. Nam, NMN, NmR, or NAD was dissolved in PBS at the concentration of 100 mM or 1 M. Each of 5 μl solution was injected into left intravitreal component under the anesthesia at a rate of […]. The left optic nerve was transected at 24 hours after intravitreal injection and optic nerve was recovered at indicated time. Optic nerve tissue was homogenized in 100 μl of a buffer containing 100 mM tris-HCl (pH 6.8), 1% SDS, and 1 mM DTT. Fifty μg of protein for each sample was analyzed by the Western blotting using anti-neurofilament antibody 2H3 (Developmental Studies Hybridoma Center) and peroxidase-conjugated secondary antibody (Jackson ImmunoResearch). The degeneration rate was calculated from the ratio of the neurofilament immunoreactivity of transected vs. contralateral nerves.
Transection of optic nerve is an in vivo model which can be used to investigate mechanisms leading to Wallerian degeneration and following retinal ganglion cell (RGC) death observed in human diseases such as glaucoma. In the C57BL/Wlds mouse strain, optic nerve degeneration during Wallerian degeneration after axotomy is dramatically slowed. In addition, intravitreal injection is used for screening of compounds that protect RGC axon from degeneration in vivo and thus we can asses the axon protective effect of each NAD biosynthetic substrates in vive by intraocular injection of compounds including NAD, NMN, NmR, and Nam. From in vitro Wallerian degeneration assay, 1 mM of NAD, NMN, and NmR in the culture media is enough to protect axon from degeneration. We initially injected 5 μl of 100 mM or 1 M NAD solution into left intravitreal compartment. After 24 hours incubation, left optic nerve was transected and control (right) and axotomized (left) optic nerve were collected at 3, 4, and 5 days after transection. Neurofilament immunoreactivity from the axotomized optic nerve was measured and normalized against the value obtained from the right side of the optic nerve.
Background: A western blot detects proteins with antibodies after separation by electrophoresis.

Another assay relates to ACC. Briefly: ACC phosphorylation in brain after intraperitoneal injection. To be noted: single intraperitoneal injection 20 mg/kg; within 2 h. Format: in vivo, mice. The method, then:
FIG. 15A-E illustrates that resveratrol treatment causes AMPK phosphorylation in the brain. Two-month-old male mice were injected intraperitoneally with resveratrol (20 mg/kg body weight) or DMSO (vehicle) (n=3, for each treatment). Two hr after treatment, the animals were sacrificed and brain lysates were prepared. […] Total AMPK and ACC levels are shown as loading controls in B and D. (E) Densitometry was used to quantify the increased level of AMPK and ACC phosphorylation in the brain of resveratrol treated animals (* p<0.005).
To extend our in vitro results, we tested whether treating mice with resveratrol activates AMPK in the brain. We injected intraperitoneally 2-month-old male mice with either resveratrol (20 mg/kg body weight) or DMSO (vehicle) (n=3 for each group).

Assay [2] relates to acetyl Co-A carboxylase (ACC). Briefly: ACC phosphorylation in Neuro2a cells (phospho-specific western blot). In kind it is cell-based. To be noted: resveratrol 10 μM or AICAR 1 mM; all time points to 72 hr. The protocol:
FIG. 10A-D illustrates resveratrol activation of AMP kinase in Neuro2a cells. Neuro2a cells were switched to serum-starvation medium (medium containing 0.2% FCS) and treated with DMSO (vehicle control), resveratrol (10 μM) or 5-aminoimidazole-4-carboxamide-1-β-D-ribofuranoside (AICAR) (1 mM). […] Very low levels of phosphorylated AMPK and ACC were detected in DMSO treated control cells at all time points tested. (C) Densitometric analysis of changes in phosphorylated AMPK and (D) phosphorylated ACC under different conditions is shown.
Plasmids and viruses. […] Quantitative RT-PCR analysis was performed using Sybr-Green methodology on a model 7700 instrument (Applied Biosystems) as previously described (Araki et al., 2004, Science 305:1010-1013). […]
To explore the role of polyphenols, in particular, of resveratrol, we tested whether resveratrol altered the activity of AMPK in neuronal cells. […] To confirm that AMPK activation by resveratrol results in typical AMPK-mediated downstream responses, we monitored phosphorylation of ACC (acetyl Co-A carboxylase), a primary target of activated AMPK. […] To examine a potential mechanism of resveratrol-mediated AMPK activation, we measured cellular ATP levels as a decreased ATP:AMP ratio increases the phosphorylation of AMPK. […]

Assay [3] deals with neuro2A cells. Briefly: cellular ATP levels, luciferase-based assay in neuro2A cells. In kind it is cell-based. The protocol: To explore the role of polyphenols, in particular, of resveratrol, we tested whether resveratrol altered the activity of AMPK in neuronal cells. Neuro2a neuroblastoma cells were treated with resveratrol (10 μM) and AMPK activation was examined using phospho-AMPK specific antibodies. […] To confirm that AMPK activation by resveratrol results in typical AMPK-mediated downstream responses, we monitored phosphorylation of ACC (acetyl Co-A carboxylase), a primary target of activated AMPK. […] To examine a potential mechanism of resveratrol-mediated AMPK activation, we measured cellular ATP levels as a decreased ATP:AMP ratio increases the phosphorylation of AMPK. ATP levels were monitored using a luciferase-based assay in neuro2A cells treated with resveratrol or Oligomycin, an inhibitor of mitochondrial oxidative phosphorylation and therefore ATP production. While the ATP concentration dropped from 5.874 μM in DMSO-treated cells (control) to 0.976 μM in Oligomycin treated cells within 2 hr, the ATP concentration in resveratrol-treated Neuro2a cells was not altered from control either at 2 hr (6.33 μM) or 24 hr (6.42 μM).

Assay [4] relates to neuro2A cells. Briefly: Neuro2a cell proliferation, Ki67 immunocytochemistry. Format: cell-based. To be noted: 0.2% fetal calf serum; AICAR 1 mM or resveratrol 10 μM; 24 h after plating; DMSO controls 50%. The method, then:
Neuro2a cells are a widely used as in vitro model of neuronal differentiation. These cells cease to proliferate and begin to differentiate, as evidenced by neurite outgrowth, in response to serum starvation, retinoic acid, or growth factors like neurotrophins and GDNF family ligands. […] Neuro2a cells grown under serum starvation conditions (0.2% fetal calf serum) were treated with AICAR (1 mM) or resveratrol (10 μM).

As for `NC(=O)c1cccnc1` [Nam, nicotinamide], in assay [1], the “neurofilament immunoreactivity of axotomized optic nerve, of non-axotomized optic nerve” value is on record as “did not show any difference from the control animals”.

Turning to `Oc1ccc(C=Cc2cc(O)cc(O)c2)cc1` [resveratrol], the “increased ACC phosphorylation in the brain” value in the assay on ACC is 2.1 fold. For the same molecule, in assay [2], the ACC phosphorylation result is listed as “robust phosphorylation of ACC”. The ATP concentration was determined as 6.33 µM in the assay on neuro2A cells [3] (2 hr) and 6.42 µM in the assay with neuro2A cells [3] (24 hr). Also, the “proliferating cells (Ki67)” value in the assay on neuro2A cells [4] is listed as 11%.
